Literature values in article PMC7984292 (Chemmedchem, 2020).
Several values for one entry are separate records, joined by “and”; a condition that tells them apart may be missing. Identical values can stand only once.

What was measured:
[1] = not given; remark: listed apart in the source
hDAT = hDAT (Homo sapiens, UniProt Q01959); settings: read-out: IC50 hDAT; oxo isomers; taken from reference
Chain of hDAT (Q01959 whole entry): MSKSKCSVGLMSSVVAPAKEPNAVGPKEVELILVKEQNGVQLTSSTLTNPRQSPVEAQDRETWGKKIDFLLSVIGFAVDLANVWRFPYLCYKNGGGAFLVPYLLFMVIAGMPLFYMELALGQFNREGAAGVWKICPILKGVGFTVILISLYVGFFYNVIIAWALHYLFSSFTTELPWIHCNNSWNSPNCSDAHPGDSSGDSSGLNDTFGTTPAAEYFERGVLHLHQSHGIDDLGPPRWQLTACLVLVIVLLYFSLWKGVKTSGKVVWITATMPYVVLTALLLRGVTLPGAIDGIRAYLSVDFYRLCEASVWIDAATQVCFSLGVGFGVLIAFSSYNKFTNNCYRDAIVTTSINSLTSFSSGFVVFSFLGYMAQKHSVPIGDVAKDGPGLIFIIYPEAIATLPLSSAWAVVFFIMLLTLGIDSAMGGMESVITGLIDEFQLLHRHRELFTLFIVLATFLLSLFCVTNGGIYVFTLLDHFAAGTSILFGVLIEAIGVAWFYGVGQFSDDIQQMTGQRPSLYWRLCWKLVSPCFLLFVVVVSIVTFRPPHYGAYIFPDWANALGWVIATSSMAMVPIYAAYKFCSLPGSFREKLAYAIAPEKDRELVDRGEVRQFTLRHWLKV

For `O=C(O)CN(CCN(CC(=O)O)Cc1ccccc1O)Cc1ccccc1O` [HBED], the “log K GaL (stability constant for the Ga3+ complex)” value is given as 38.51.

For `CN1[C@H]2CC[C@@H]1[C@@H](CN(CC[S-])CC[N-]CC[S-])[C@@H](c1ccc(Cl)cc1)C2.[O]=[99Tc+4]` [TRODAT‐1 6], the “log P” value ([1]; value in parentheses = log P, literature value) is listed as “(0.29±0.04) ^[29]” and the IC50 (hDAT) is listed as 8.42 nM and 13.9 nM.

In the case of `COC(=O)[C@H]1[C@@H](OC(=O)c2ccccc2)C[C@@H]2CC[C@H]1N2C` [cocaine 1, cocaine], the “log D 7.4” value ([1]; pH 7.4) is given as 1.31±0.01 ^[22].
